In PubChem BioAssay AID1996:
In brackets after ≈: the same amount, converted by molar mass.

Details: buffer; pH 7.4; 200.0 µM

| Compound | solubility kinetic [µg/mL] |
| --- | --- |
| Cc1ccc(C)c(C(C)NC(=O)Cc2cccs2)c1 (stereo not given) | > 41 |
| COc1ccc(Cl)cc1-c1csc(N)n1 | 34.1 (≈ 142 µM) |
| O=C(Nc1ccon1)c1sc2cc(Cl)ccc2c1Cl | < 0.3 |
| Cl.Clc1cccc(Cl)c1CSc1nnc([C@@H]2CCCN2)o1 | > 55 |
| CC1CCCC(NC(=O)c2ccc3c(c2)NC(=O)CS3)C1C (stereo not given) | 5.3 (≈ 16.6 µM) |
| O=[N+]([O-])c1cc(-c2ncccn2)c([N+](=O)[O-])s1 | 34.8 (≈ 138 µM) |
| Cc1cc(C)cc(C(=O)Nc2cc3c4c(c2)CC(=O)N4CCC3)c1 | 1.2 (≈ 3.75 µM) |
| COc1ccc(N2C(=O)[C@@H]3C(c4cccnc4)=NO[C@@H]3C2=O)cc1 | 45 (≈ 139 µM) |
| COc1ccc(O)c(/C=C2/SC(=S)N(Cc3ccccc3)C2=O)c1 | < 0.8 |
| O=Cc1c(NCCc2cccc(F)c2)c2ccccc2[nH]c1=O | 9.3 (≈ 30 µM) |
| C/C(=C\C(=O)c1ccc(Cl)s1)N(C)C | > 34.5 |
| O=C(NC(=S)NCc1ccccc1)c1ccc(Br)cc1 | < 0.4 |
| Cc1ccc(C)c(NC(=O)COC(=O)CC2CC3CCC2C3)c1 (stereo not given) | 20.4 (≈ 64.7 µM) |
| Cc1ccc(C(=O)NCCNC(=O)c2ccc(F)cc2)cn1 | > 45.2 |
| O=C1[C@@H]2CSCN2C(=O)CN1Cc1cccc(C(F)(F)F)c1 | 44 (≈ 133 µM) |
| O=C(CCCSc1ccccc1)Nc1cccc(CO)c1 | > 45.2 |
| Cc1cc(C(=O)Nc2ccc(F)cc2)c2ccccc2n1 | < 0.3 |
| CC1(C)CC(=O)c2c(Cc3ccccc3)noc2C1 | 33.4 (≈ 131 µM) |
| COC(=O)CSc1nc(C)cc(N2CCOCC2)n1 | > 42.5 |
| O=C(COC(=O)c1ccc(Cl)nc1)Nc1ccccc1OC(F)F | > 53.5 |
| S=C(NCC1CCCO1)NC1CC1 (stereo not given) | > 30 |
| O=C(CC1SC(N2CCOCC2)=NC1=O)Nc1ccc(Cl)c(C(F)(F)F)c1 (stereo not given) | 4.4 (≈ 10.4 µM) |
| COc1ccc(-c2ncncc2-c2ccc(OC)c(OC)c2)c(O)c1 | > 50.8 |
| NCCCCCC(=O)O | 0.9 (≈ 6.86 µM) |
| CC(C)(C)c1ccc(-c2noc(CCC(=O)Nc3cccnc3)n2)cc1 | 3.1 (≈ 8.85 µM) |
| O=C(NCCO)C(=O)Nc1cc2c3c(c1)CCC(=O)N3CCC2 | > 47.6 |
| Nc1nc(Nc2ccccc2F)nc(NCCO)c1[N+](=O)[O-] | 45.8 (≈ 149 µM) |

| Compound | solubility kinetic [µg/mL] |
| --- | --- |
| Cc1ccc(Sc2ncccc2NC(=O)c2ccccc2Cl)cc1 | 2 (≈ 5.64 µM) |
| COc1ccc(CNC(=S)Nc2cccc(OC)c2)cc1 | 41.1 (≈ 136 µM) |
| Cc1sc(N)nc1-c1ccc2c(c1)OCCO2 | 19.5 (≈ 78.5 µM) |
| O=C(COC(=O)C1CC1)Nc1ccc(Cl)cc1Cl | 41.9 (≈ 145 µM) |
| C#CCn1c(=O)cc(C)c2ccccc21 | > 29.6 |
| CC(C)[N+](C)(C)CC#CC(O)(c1ccccc1)c1ccccc1.[Br-] | 51 |
| O=C(NCC1CCCO1)c1cc(-c2ccccc2F)no1 (stereo not given) | 42.4 (≈ 146 µM) |
| CCC(C)c1ccccc1NC(=O)c1cc(C)no1 (stereo not given) | > 38.7 |
| Cc1ccc(NC(=O)CCCC(=O)OC(C)C(=O)c2ccccc2)cc1 (stereo not given) | > 53 |
| Cc1cc(NC(=O)CSc2ncccc2C(=O)O)no1 | > 44 |
| O=C(Cn1c(=O)oc2ccccc21)Nc1ccc(F)cc1 | 21.8 (≈ 76.2 µM) |
| C#CC[N+](CC)(CC)CC#Cc1ccccc1.[Br-] | 37.8 |
| COc1ccc(NC(=S)Nc2ccc3nccnc3c2)cc1 | 22.8 (≈ 73.5 µM) |
| CSc1c(C#N)c(N)nc2sc(C(=O)c3ccccc3)c(N)c12 | 3.1 (≈ 9.11 µM) |
| O=C1CC(N2CCN(c3ccc(F)cc3)CC2)C(=O)N1Cc1ccccc1 (stereo not given) | 48.2 (≈ 131 µM) |
| CC(C)(C)N(Cc1ccccc1)C(=O)c1ccncc1 | > 40.3 |
| O=C(O)c1cccc(NC2=Nc3cccc4cccc2c34)c1 | 36.7 (≈ 127 µM) |
| CC(=O)Nc1ccc2c3c(cccc13)C(=O)N(c1ccccc1)C2=O | 2.3 (≈ 6.96 µM) |
| O=C(O)C1CCCNC1 (stereo not given) | 0.4 (≈ 3.1 µM) |
| Cc1[nH]c2ccccc2c1/C=C(\C#N)C(=O)NC1CC1 | 6.8 (≈ 25.6 µM) |
| CC(c1ccccc1)n1c(S(=O)(=O)O)nc2ccccc21 (stereo not given) | 43.7 (≈ 145 µM) |
| Cc1nc(SCc2cccc(F)c2)c2oc3ccccc3c2n1 | < 0.3 |
| Cc1nc2cc(NCc3cccs3)ccc2n1C | 31.9 (≈ 124 µM) |
| CC(C)c1ccc(N2C(=O)CC(=O)NC2=O)cc1 | 34.4 (≈ 140 µM) |
| O=C(CN1C(=O)c2ccc([N+](=O)[O-])cc2C1=O)Nc1nccs1 | 26.2 (≈ 78.8 µM) |
| O=C(CCC(=O)OCC(F)(F)C(F)F)Nc1ccccc1F | > 48.8 |
| O=C1NC(c2cc(Cl)cc([N+](=O)[O-])c2O)Nc2ccccc21 (stereo not given) | > 48 |

| Compound | solubility kinetic [µg/mL] |
| --- | --- |
| O=[N+]([O-])c1ccc2nc(-c3ccncc3)[nH]c2c1 | 8 (≈ 33.3 µM) |
| Cc1ccc(C(=O)Nc2ccc3c(c2)OCCO3)c(C)c1 | > 42.5 |
| Nc1cc(C(F)(F)F)ccc1OCC1CCCO1 (stereo not given) | 32.8 (≈ 126 µM) |
| CC(=O)C1=C(O)C(=O)N(c2ccccn2)C1c1ccc(Cl)cc1 (stereo not given) | 40.9 (≈ 124 µM) |
| O=C1c2ccccc2NC(c2cccc(O)c2)N1c1ccccc1 (stereo not given) | 2.9 (≈ 9.17 µM) |
| N#Cc1ccc(CSc2ccccn2)c(Cl)c1 | 3.4 (≈ 13 µM) |
| COc1ccc(-c2csc(-c3cccs3)n2)c(OC)c1 | 0.8 (≈ 2.64 µM) |
| O=S(=O)(Nc1cccc(-c2nc3cccnc3s2)c1)c1cccs1 | 0.9 (≈ 2.41 µM) |
| O=C(COC(=O)c1ccccc1Oc1ccccc1)NC1CC1 | > 46.7 |
| O=C(Cn1cnc([N+](=O)[O-])n1)NC1CC1 | > 31.7 |
| C=CCNC(=O)C1=NN(c2c(F)c(F)cc(F)c2F)C(=O)CC1 | > 49.4 |
| COc1ccc(CNc2ccc3c(c2)nc(C)n3C)cc1OC | 37.2 (≈ 119 µM) |
| Cc1ccsc1C(=O)N(C)C1CCS(=O)(=O)C1 (stereo not given) | > 41 |
| COc1cccc(-c2ccc3c(N)c(C(=O)NC4CC4)sc3n2)c1 | 15.1 (≈ 44.5 µM) |
| COc1ccc(-c2noc(CN(C)C(=O)c3ccoc3C)n2)cc1OC | 43.3 (≈ 121 µM) |
| Cc1ccc(C(=O)Cc2nc3ccccc3[nH]2)cc1 | 30.5 (≈ 122 µM) |
| COc1cc(C(=O)O)ccc1OCc1ccncc1 | > 38.9 |
| CNc1nc(NC#N)nc(SC)n1 | 24.9 (≈ 127 µM) |
| CC(=O)OCCCN(C)CC/C=C1/c2ccccc2CSc2ccccc21.Cl | 53.8 |
| CCCC(=O)NCc1nc2ccccc2n1CC(=O)c1ccccc1 | > 50.3 |
| O=C(NCc1ccncc1)c1cncc(Br)c1 | > 43.8 |
| Cc1ccc2sc(N(CCN(C)C)C(=O)/C=C/c3cccs3)nc2c1C.Cl | < 0.3 |
| Cn1c(N)c(C(=O)CSc2nnc(N)s2)c(=O)n(C)c1=O | > 49.3 |
| COc1cccc(C(=O)COc2ccc(NC(=O)c3ccccc3)cc2)c1 | < 0.8 |
| CC(C)Nc1nc(N)c(C(=O)C23CC4CC(CC(C4)C2)C3)s1 | 0.3 (≈ 0.939 µM) |
| O=c1[nH]c(=S)[nH]cc1S(=O)(=O)c1cccc(Cl)c1 | > 45.4 |

The next lines start with the values.

| solubility kinetic [µg/mL] | Compound |
| --- | --- |
| 9.2 (≈ 26.5 µM) | CCc1ccc(OCC(=O)OCC(=O)NC2CCCC(C)C2C)cc1 (stereo not given) |
| 40.6 (≈ 117 µM) | COc1ccc(C(=O)N2CCN(CC(=O)N3CCOCC3)CC2)cc1 |
| 51.8 (≈ 136 µM) | CN(Cc1ccc(C(F)(F)F)cc1)C(=O)C1CC(=O)N(Cc2ccco2)C1 (stereo not given) |
| 18 (≈ 51.2 µM) | CC1C=CCC2C(=O)N(c3ccc(OC(=O)c4ccco4)cc3)C(=O)C12 (stereo not given) |
| 58.5 (≈ 142 µM) | CC1CN(C(=O)COC(=O)[C@@H](NC(=O)c2ccccc2Cl)C(C)C)CC(C)O1 (stereo not given in full) |
| 3.8 (≈ 16.1 µM) | c1csc(-c2nc(N3CCCCC3)no2)c1 |
| > 49 | CCCn1c(SCC(=O)Nc2ccc(Cl)cc2)n[nH]c1=O |
| > 47.9 | CC(=O)Nc1ccc(S(=O)(=O)NC(C)c2ccncc2)cc1 (stereo not given) |
| 36.4 (≈ 133 µM) | CC(=O)Nc1ccc(C(=O)NCC2CCCCC2)cc1 |
| 17.9 (≈ 43.8 µM) | COc1ccccc1CNC(=O)c1ccc(Cl)c(S(=O)(=O)N2CCCC2)c1 |
| > 54.7 | CCN1CCc2c(OCC(=O)N3CCCc4ccccc43)cccc2C1=O |
| > 47.3 | COc1ccccc1N1CCN(C(=O)c2c(C)noc2C)CC1 |
| < 0.4 | O=C(Nc1ccc(N2CCCC2)cc1)c1cccc(Cl)c1Cl |
| 5 (≈ 15.8 µM) | CCOc1ccc(OCCC(=O)Nc2ccc(F)cc2C)cc1 |
| < 0.7 | Cc1ccc(OCCOC(=O)c2c(-c3ccccc3)noc2C)cc1 |
| 12 (≈ 35.7 µM) | COc1ccc([N+](=O)[O-])cc1NC(=O)C(C)OC(=O)C1CCCC1 (stereo not given) |
| 59.1 (≈ 146 µM) | COc1ccc(C(=O)O)cc1S(=O)(=O)NC1CCN(Cc2ccccc2)CC1 |
| > 43.7 | CC(OC(=O)COc1ccccc1)C(=O)NC1CCCC1 (stereo not given) |
| > 46.9 | O=C(OCC(=O)N1CCCC1)c1cc(Cl)ccc1[N+](=O)[O-] |
| 17.6 (≈ 45.5 µM) | COc1cc(SC)ccc1C(=O)OCC(=O)N1CC(=O)Nc2ccccc21 |

| solubility kinetic [µg/mL] | Compound |
| --- | --- |
| 31 (≈ 87.5 µM) | CCOc1ccc(N(CC(=O)N2CCCCCC2)S(C)(=O)=O)cc1 |
| > 47.8 | O=C(c1ccncc1)N1CCN(c2ccc3ccccc3n2)CC1 |
| 47.2 (≈ 140 µM) | CCOC(=O)C1(Cc2cccc(F)c2)CCN(C(=O)COC)CC1 |
| 22 (≈ 77.8 µM) | S=C(Nc1ccccc1Cl)NC1CCCCCC1 |
| 61.3 (≈ 136 µM) | O=C(CC1SC(N2CCCCC2)=NC1=O)Nc1ccc(C(=O)NCc2ccccc2)cc1 (stereo not given) |
| 17.2 (≈ 49.4 µM) | COc1ccc(OCC(O)CNC(=O)Nc2cc(F)ccc2C)cc1 (stereo not given) |
| > 44.1 | CC(C)N(C(=O)Cn1c(Cl)nc2ccccc21)C(C)C |
| 46.3 (≈ 142 µM) | CC(=O)Nc1ccc(S(=O)(=O)Nc2ccc(Cl)cn2)cc1 |
| 12.4 (≈ 39.7 µM) | COc1ccc2ccc(OCC(=O)Nc3cc(C)on3)cc2c1 |
| > 47.4 | CC(C)(C)NC(=O)CSCc1ccc(Br)cc1 |
| 9.7 (≈ 20.5 µM) | COc1cc2nc(CN3CCN(S(=O)(=O)c4cc(C)ccc4C)CC3)[nH]c(=O)c2cc1OC |
| > 39.5 | CCOC(=O)C(=O)N(CC)C1CCS(=O)(=O)C1 (stereo not given) |
| 39.8 (≈ 123 µM) | Cc1ccc(S(=O)(=O)N(C)C)cc1NC(=O)c1cccs1 |
| 37.2 (≈ 123 µM) | COCC1CCN(Cc2nc(COc3ccccc3)no2)C1 (stereo not given) |
| 25.5 (≈ 108 µM) | O=[N+]([O-])c1ccccc1OCCN1CCCC1 |
| > 38.2 | O=C(CN1CCOCC1)Nc1ccc(Cl)cc1 |
| 4.1 (≈ 14.5 µM) | CCN(CC)c1ccc(NC(=O)Nc2ccccc2)cc1 |
| 5.2 (≈ 18.4 µM) | CCC(CC)NC(=O)c1cccc(Oc2ccccc2)c1 |
| > 43.4 | COc1ccc(F)cc1S(=O)(=O)NCC1CCCO1 (stereo not given) |
| > 41.9 | CC(C)C(OC(=O)c1ccco1)C(=O)NC1CCCC1 (stereo not given) |
